The experiment concerns ventral prostate and seminal vesicle weights, testosterone propionate-treated castrated male Sprague Dawley rats. Put plainly: Ventral Prostate and Seminal Vesicle Weight In Vivo Assay. The conditions noted are these: percent inhibition of testosterone-enhanced prostate weight; immature castrated male rats; test compound usually orally 40 mg/kg (2 mg/day) once daily for five days plus testosterone propionate 2 mg/kg s.c. The procedure:
Ventral Prostate and Seminal Vesicle Weight In Vivo Assay
Immature (approximately 50 g) castrated male Sprague Dawley rats (Charles River) were treated once daily for five days with test compound (usually given orally at 40 mg/kg in a volume of 0.3 mL, in 30% cyclodextrin or 0.5% methylcellulose vehicle) and with testosterone propionate (given subcutaneously by injection at the nape of the neck at 2 mg/kg, in a volume of 0.1 mL in sesame oil). On the sixth day, the rats were euthanized by asphyxiation in carbon dioxide. Ventral prosatates and seminal vesicles were removed and their wet weights determined. Test compound activity was determined as the percent inhibition of testosterone-enhanced tissue weights, with a vehicle-treated control group set to zero percent and a testosterone alone-treated control group set to 100%.
Representative compounds of the present invention were tested according to the procedure described, with results as listed in Table 7 below. A test compound is listed as “active” if the non weight adjusted prostate weight was ≦40 mg or the % Inhibition prostate weight, body weight adjusted was ≧40%@ 2 mg/day dosage. ID50's, if determined, of ≦15 mg/day also indicated an “active” compound.
With `Cn1c(C(C)(O)CSCc2ccccc2)nc2cc(Cl)c(Cl)cc21` (stereo not shown) [Compound 23], the result was active.

For the compound “3,3,3-Trifluoro-2-methoxy-2-phenyl-propionic acid 1-(5,6-dichloro-1H-benzamidazol-2-yl)-2,2,2-trifluoro-1-methyl-ethyl ester [Compound 107]”, the result was active.

In the case of `CSCC(C)(O)c1nc2cc(Cl)c(Cl)cc2n1C` (stereo not shown) [Compound 12], the result was active.

Take `O=[N+]([O-])c1cc2nc(C(O)C(F)(F)F)[nH]c2cc1[N+](=O)[O-]` (stereo not shown) [Compound 155, 1-(5,6-Dinitro-1H-benzoimidazol-2-yl-)2,2,2-trifluoro-ethanol]: the result was inactive.
